The values below come from US8815946B2, “Inhibition of proliferation and fibrotic response of activated corneal stromal cells” (University of Pittsburgh—of the Commonwealth System of …, priority 2008, dated 2014).

Entries after “also recorded” stand apart in the source; their conditions may differ.

Assay [1] deals with type III collagen, tenascin and fibronectin. The assay is described as follows: Western blot of TGF-β1 activated rabbit corneal keratocytes: type III collagen, tenascin, fibronectin. In kind it is cell-based. The note with it: TGF-β1 (10 ng/ml)+1% FBS, two days, compared to controls with no treatment. The procedure: (§1) FIGS. 19A and 19B. Western blot analyses: Rabbit corneal keratocytes were isolated and cultured in serum-free DMEM/F12 into 60 mm tissue culture dishes. After 24 hrs of incubation, the media were replaced with DMEM/F12 medium containing TGF-β1(10 ng/ml)+1% FBS without (control) or with EP or EP-derivatives for two days. The cells were extracted in RIPA buffer and the extracts containing 5 μg of total proteins were loaded per lane for Western blot analysis.
(§2) Keratocytes or fibroblasts grown under different culture conditions were extracted in RIPA buffer (9.1 mM dibasic sodium phosphate, 1.7 mM monobasic sodium phosphate, 150 mM NaCl, pH, 7.4, 1% Nonidet P-40, 0.5% sodium deoxycholate, 0.1% SDS, 0.03 TIU/mL aprotinin, 1 mM sodium orthovanadate, and 100 μg/mL phenylmethylsulfonyl fluoride (PMSF)). Aliquots of cell extracts containing 50 or 100 μg protein were subjected to SDS-PAGE. Protein bands on SDS-PAGE were electrophoretically transferred to IMMOBILON-P™ membrane (Millipore Corp., Bedford, Mass.), stained with 0.1% Coomassie blue 250 in 40% methanol/1% acetic acid for 1 minute, destained one to three times with 50% methanol/1% acetic acid, scanned for densitometric comparisons of relative concentrations of proteins per lane, destained with methanol, and subjected to Western blot analysis. Immunoreactive bands were detected using chemiluminescence Western chemiluminescence reagents.
(§3) As described in Example 1, corneal stromal cells were isolated from rabbit corneas and cultured using the same procedures. The keratocytes in serum free media were treated with b-FGF (40 ng/ml)+HS (5 μg/ml) with or without 15 mM EP or 1, 2.5 or 5 mM following EP derivatives: 2-oxopropionic acid 3-methoxyphenyl ester, 2-oxopropionic acid 2-ethoxyethyl ester, 2-oxopropionic acid 2-chloroethyl ester, 2-oxopropionic acid isopropyl ester, 2-oxopropionic acid butyl ester, 2-oxopropionic acid p-tolyl ester, 2-oxopropionic acid tert-butyl ester. […] The relative levels of the expression of specific proteins were analyzed by Western blot analyses of the cell lysates as described supra.

In assay [2] the test system is alpha-smooth muscle actin. The assay is described as follows: Western blot of TGF-β1 activated rabbit corneal keratocytes: alpha-smooth muscle actin. In kind it is cell-based. The conditions noted are these: TGF-β1 (10 ng/ml)+1% FBS, two days, compared to controls with no treatment. The procedure:
as §1, §2, §3
For orientation: Immunoblotting shows a protein as a band on a membrane.

Take `CC(=O)C(=O)Oc1ccc(C)cc1` [2-oxopropionic acid p-tolyl ester]: the “levels of type III collagen, tenascin and fibronectin (Western blot)” value in assay [1] is “reduced levels”. For the same molecule, the “alpha-smooth muscle actin levels (Western blot)” value in assay [2] was “reduced expression; also recorded: reduced levels”.

Turning to `CC(=O)C(=O)OCCCl` [2-oxopropionic acid 2-chloroethyl ester], the “levels of type III collagen, tenascin and fibronectin (Western blot)” value in assay [1] is given as “reduced levels”. Besides, the “alpha-smooth muscle actin levels (Western blot)” value in assay [2] was “reduced expression; also recorded: reduced levels”.
